In patent US11986532B2 (Arvinas Operations, Inc., priority 2021, dated 2024) one finds Dmax and DC50 data, which are given here for 15 compounds.

One may read the Dmax as the largest share of the target that was removed. A word on the DC50: it is the concentration giving 50% degradation.

For the assay, the target named is T1, BCL6 (Homo sapiens, UniProt P41182).
T1 construct: endogenous in cells; host or cells: T47D breast cancer epithelial cells
Briefly: Immunofluorescence protocol for high content imaging of BCL6 (degradation) in T47D cells, 3 days compound treatment. The class given is cell-based. The following applies: for Dmax: T47D, read-out: Mean Dmax (%)** category; for DC50: read-out: Mean DC50 (nM)* category. The method, boiled down:
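For degradation, compound series (3-fold, 11 points, top 0.1 or 1 μM final) were added to adherent T47D cultures for 3 days. BCL6 immunostaining used a rabbit antibody at 1:300 and an Alexa-488 secondary, with imaging at 10× magnification.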

Turning to `CNC(=O)COc1cc2cc(Nc3nc(N4CCC(OC5CCC6(CC5)CN(c5cc(F)cc7c5CN(C5CCC(=O)NC5=O)C7=O)C6)CC4)ncc3Cl)ccc2n(C(C)C)c1=O` (stereo not drawn) [Compound 299, 2-{[6-({5-chloro-2-[4-({2-[2-(2,6-dioxopiperidin-3-yl)-6-fluoro-1-oxo-2,3-dihydro-1H-isoindol-4-yl]-2-azaspiro[3.5]nonan-7-yl}oxy)piperidin-1-yl]pyrimidin-4-yl}amino)-2-oxo-1-(propan-2-yl)-1,2-dihydroquinolin-3-yl]oxy}-N-methylacetamide], the Dmax was 50 to 70% and the DC50 was under 10 nM.

Take `CNC(=O)COc1cc2cc(Nc3nc(N4CCC(OC5CCC6(CC5)CN(c5c(OC)ccc7c5CN(C5CCC(=O)NC5=O)C7=O)C6)CC4)ncc3Cl)ccc2n(C(C)C)c1=O` (stereo not drawn) [Compound 300, 2-{[6-({5-chloro-2-[4-({2-[2-(2,6-dioxopiperidin-3-yl)-5-methoxy-1-oxo-2,3-dihydro-1H-isoindol-4-yl]-2-azaspiro[3.5]nonan-7-yl}oxy)piperidin-1-yl]pyrimidin-4-yl}amino)-2-oxo-1-(propan-2-yl)-1,2-dihydroquinolin-3-yl]oxy}-N-methylacetamide]: the Dmax lay in the range of 50 to 70% and the DC50 was under 10 nM.

As for `CNC(=O)COc1cc2cc(Nc3nc(N4CCC(OC5CCC6(CC5)CN(c5cc(OC)cc7c5CN(C5CCC(=O)NC5=O)C7=O)C6)CC4)ncc3Cl)ccc2n(C(C)C)c1=O` (stereo not drawn) [Compound 301, 2-{[6-({5-chloro-2-[4-({2-[2-(2,6-dioxopiperidin-3-yl)-6-methoxy-1-oxo-2,3-dihydro-1H-isoindol-4-yl]-2-azaspiro[3.5]nonan-7-yl}oxy)piperidin-1-yl]pyrimidin-4-yl}amino)-2-oxo-1-(propan-2-yl)-1,2-dihydroquinolin-3-yl]oxy}-N-methylacetamide], the Dmax fell in the range of 50 to 70% and the DC50 was under 10 nM.

For the compound `CNC(=O)COc1cc2cc(Nc3nc(N4CCC(CN5CCC6(CC5)CN(c5ccc7c(c5OC)CN(C5CCC(=O)NC5=O)C7=O)C6)CC4)ncc3Cl)ccc2n(C(C)C)c1=O` (stereo not drawn) [Compound 302, 2-{[6-({5-chloro-2-[4-({2-[2-(2,6-dioxopiperidin-3-yl)-4-methoxy-1-oxo-2,3-dihydro-1H-isoindol-5-yl]-2,7-diazaspiro[3.5]nonan-7-yl}methyl)piperidin-1-yl]pyrimidin-4-yl}amino)-2-oxo-1-(propan-2-yl)-1,2-dihydroquinolin-3-yl]oxy}-N-methylacetamide], the Dmax was 50 to 70% and the half-maximal degradation concentration (DC50) is under 10 nM.

In the case of `CNC(=O)COc1cc2cc(Nc3nc(N4CCC(O[C@H]5C[C@H](N6CC=C(c7ccc8c(c7)C(=O)N(C7CCC(=O)NC7=O)C8=O)CC6)C5)CC4)ncc3Cl)ccc2n(C(C)C)c1=O` (stereo partly drawn) [Compound 303, 2-({6-[(5-chloro-2-{4-[(1r,3r)-3-{4-[2-(2,6-dioxopiperidin-3-yl)-1,3-dioxo-2,3-dihydro-1H-isoindol-5-yl]-1,2,3,6-tetrahydropyridin-1-yl}cyclobutoxy]piperidin-1-yl}pyrimidin-4-yl)amino]-2-oxo-1-(propan-2-yl)-1,2-dihydroquinolin-3-yl}oxy)-N-methylacetamide], the Dmax was in the range of 50 to 70% and the DC50 was 50 to 100 nM.

For the compound `CNC(=O)COc1cc2cc(Nc3nc(N4CCC(OC5CCC6(CC5)CN(c5ccc(OC)c7c5CN(C5CCC(=O)NC5=O)C7=O)C6)CC4)ncc3Cl)ccc2n(C(C)C)c1=O` (stereo not drawn) [Compound 304, 2-{[6-({5-chloro-2-[4-({2-[2-(2,6-dioxopiperidin-3-yl)-7-methoxy-1-oxo-2,3-dihydro-1H-isoindol-4-yl]-2-azaspiro[3.5]nonan-7-yl}oxy)piperidin-1-yl]pyrimidin-4-yl}amino)-2-oxo-1-(propan-2-yl)-1,2-dihydroquinolin-3-yl]oxy}-N-methylacetamide], the Dmax is 50 to 70% and the DC50 is under 10 nM.

`CNC(=O)COc1cc2cc(Nc3nc(N4CCN(CC5CCC6(CC5)CN(c5ccc7c(c5)CN(C5CCC(=O)NC5=O)C7=O)C6)CC4)ncc3Cl)ccc2n(C(C)C)c1=O` (stereo not drawn) [Compound 305, 2-{[6-({5-chloro-2-[4-({2-[2-(2,6-dioxopiperidin-3-yl)-1-oxo-2,3-dihydro-1H-isoindol-5-yl]-2-azaspiro[3.5]nonan-7-yl}methyl)piperazin-1-yl]pyrimidin-4-yl}amino)-2-oxo-1-(propan-2-yl)-1,2-dihydroquinolin-3-yl]oxy}-N-methylacetamide]: the Dmax is 50 to 70% and the DC50 is under 10 nM.

As for `CNC(=O)COc1cc2cc(Nc3nc(N4CCN(CC5CCC6(CC5)CN(c5cc7c(cc5F)C(=O)N(C5CCC(=O)NC5=O)C7)C6)CC4)ncc3Cl)ccc2n(C(C)C)c1=O` (stereo not drawn) [Compound 306, 2-{[6-({5-chloro-2-[4-({2-[2-(2,6-dioxopiperidin-3-yl)-6-fluoro-1-oxo-2,3-dihydro-1H-isoindol-5-yl]-2-azaspiro[3.5]nonan-7-yl}methyl)piperazin-1-yl]pyrimidin-4-yl}amino)-2-oxo-1-(propan-2-yl)-1,2-dihydroquinolin-3-yl]oxy}-N-methylacetamide], the Dmax was 50 to 70% and the DC50 is under 10 nM.

As to `CNC(=O)COc1cc2cc(Nc3nc(N4CCN(CC5CCC6(CC5)CN(c5ccc7c(c5F)CN(C5CCC(=O)NC5=O)C7=O)C6)CC4)ncc3Cl)ccc2n(C(C)C)c1=O` (stereo not drawn) [Compound 307, 2-{[6-({5-chloro-2-[4-({2-[2-(2,6-dioxopiperidin-3-yl)-4-fluoro-1-oxo-2,3-dihydro-1H-isoindol-5-yl]-2-azaspiro[3.5]nonan-7-yl}methyl)piperazin-1-yl]pyrimidin-4-yl}amino)-2-oxo-1-(propan-2-yl)-1,2-dihydroquinolin-3-yl]oxy}-N-methylacetamide], the maximal degradation (Dmax) lay within 50 to 70% and the DC50 is under 10 nM.

Consider `CNC(=O)COc1cc2cc(Nc3nc(N4CCC(N(C)C5CCC6(CC5)CN(c5ccc7c(c5)C(=O)N(C5CCC(=O)NC5=O)C7=O)C6)CC4)ncc3Cl)ccc2n(C(C)C)c1=O` (stereo not drawn) [Compound 308, 2-{[6-({5-chloro-2-[4-({2-[2-(2,6-dioxopiperidin-3-yl)-1,3-dioxo-2,3-dihydro-1H-isoindol-5-yl]-2-azaspiro[3.5]nonan-7-yl} (methyl)amino)piperidin-1-yl]pyrimidin-4-yl}amino)-2-oxo-1-(propan-2-yl)-1,2-dihydroquinolin-3-yl]oxy}-N-methylacetamide], for which the Dmax fell in the range of 50 to 70% and the DC50 was under 10 nM.

`CNC(=O)COc1cc2cc(Nc3nc(N4CCC(O[C@H]5C[C@H](N6CC7(CCN7c7ccc8c(c7)CN(C7CCC(=O)NC7=O)C8=O)C6)C5)CC4)ncc3Cl)ccc2n(C(C)C)c1=O` (stereo partly drawn) [Compound 309, 2-({6-[(5-chloro-2-{4-[(1r,3r)-3-{1-[2-(2,6-dioxopiperidin-3-yl)-1-oxo-2,3-dihydro-1H-isoindol-5-yl]-1,6-diazaspiro[3.3]heptan-6-yl}cyclobutoxy]piperidin-1-yl}pyrimidin-4-yl)amino]-2-oxo-1-(propan-2-yl)-1,2-dihydroquinolin-3-yl}oxy)-N-methylacetamide]: the Dmax fell in the range of 50 to 70% and the DC50 was under 10 nM.

Turning to `CNC(=O)COc1cc2cc(Nc3nc(N4CCC(O[C@H]5C[C@H](N6CC7(CCN7c7cccc8c7C(=O)N(C7CCC(=O)NC7=O)C8)C6)C5)CC4)ncc3Cl)ccc2n(C(C)C)c1=O` (stereo partly drawn) [Compound 310, 2-({6-[(5-chloro-2-{4-[(1r,3r)-3-{1-[2-(2,6-dioxopiperidin-3-yl)-3-oxo-2,3-dihydro-1H-isoindol-4-yl]-1,6-diazaspiro[3.3]heptan-6-yl}cyclobutoxy]piperidin-1-yl}pyrimidin-4-yl)amino]-2-oxo-1-(propan-2-yl)-1,2-dihydroquinolin-3-yl}oxy)-N-methylacetamide], the Dmax was 50 to 70% and the DC50 is under 10 nM.

Take `CNC(=O)COc1cc2cc(Nc3nc(N4CCC(O[C@H]5C[C@H](N6CC7(CN(c8ccc9c(c8)C(=O)N(C8CCC(=O)NC8=O)C9=O)C7)C6)C5)CC4)ncc3Cl)ccc2n(C(C)C)c1=O` (stereo partly drawn) [Compound 311, 2-({6-[(5-chloro-2-{4-[(1r,3r)-3-{6-[2-(2,6-dioxopiperidin-3-yl)-1,3-dioxo-2,3-dihydro-1H-isoindol-5-yl]-2,6-diazaspiro[3.3]heptan-2-yl}cyclobutoxy]piperidin-1-yl}pyrimidin-4-yl)amino]-2-oxo-1-(propan-2-yl)-1,2-dihydroquinolin-3-yl}oxy)-N-methylacetamide]: the Dmax lay within 50 to 70% and the DC50 is under 10 nM.

`CNC(=O)COc1cc2cc(Nc3nc(N4CCC(OC5CCC6(CC5)CN(c5ccc(F)c7c5CN(C5CCC(=O)NC5=O)C7=O)C6)CC4)ncc3Cl)ccc2n(C(C)C)c1=O` (stereo not drawn) [Compound 312, 2-{[6-({5-chloro-2-[4-({2-[2-(2,6-dioxopiperidin-3-yl)-7-fluoro-1-oxo-2,3-dihydro-1H-isoindol-4-yl]-2-azaspiro[3.5]nonan-7-yl}oxy)piperidin-1-yl]pyrimidin-4-yl}amino)-2-oxo-1-(propan-2-yl)-1,2-dihydroquinolin-3-yl]oxy}-N-methylacetamide]: the Dmax lay within 50 to 70% and the DC50 is under 10 nM.

For the compound `CNC(=O)COc1cc2cc(Nc3nc(N4CCN(CC5CCC6(CC5)CN(c5cccc7c5CN(C5CCC(=O)NC5=O)C7=O)C6)CC4)ncc3Cl)ccc2n(C(C)C)c1=O` (stereo not drawn) [Compound 313, 2-{[6-({5-chloro-2-[4-({2-[2-(2,6-dioxopiperidin-3-yl)-1-oxo-2,3-dihydro-1H-isoindol-4-yl]-2-azaspiro[3.5]nonan-7-yl}methyl)piperazin-1-yl]pyrimidin-4-yl}amino)-2-oxo-1-(propan-2-yl)-1,2-dihydroquinolin-3-yl]oxy}-N-methylacetamide], the Dmax was in the range of 50 to 70% and the DC50 is under 10 nM.
